# Reference: patent publication US20250011368A1, “DLL3 TARGETING PEPTIDES AND CONSTRUCTS THEREOF” (MARIANA ONCOLOGY INC., priority 2023, published 2025)
# Numbered stars: 1 amine (or outer) side, 2 acyl side, 3 side chain; on linkers, the order of the positions; unused ones are H or OH. Bridge positions count the residues as written; N and C are the ends. Square brackets hold non-standard residues; d marks the D form. Peptide text beside a SMILES is read from it. * marks the point of attachment. X11 = O=C(O)CN1CCN(CC(=O)O)CCN(CC(=O)NCCCC[C@@H](NC(=O)COCCOCCOCCOCCOCCOCCOCCOCCNC(=O)Cc2ccc(Br)cc2)C(=O)NCCOCCOCCOCCOCCOCCOCCOCCOCC(=O)*)CCN(CC(=O)O)CC1; DOTA = O=C(O)CN1CCN(CC(=O)O)CCN(CC(=O)*)CCN(CC(=O)O)CC1; Trp(5-F) = N[C@@H](Cc1c[nH]c2ccc(F)cc12)C(=O)O; Phe(2-CF3) = N[C@@H](Cc1ccccc1C(F)(F)F)C(=O)O; Trp(7-aza) = N[C@@H](Cc1c[nH]c2ncccc12)C(=O)O; Pro(trans-4-F) = O=C(O)[C@@H]1C[C@@H](F)CN1; Lys(Me3) = C[N+](C)(C)CCCC[C@H](N)C(=O)O; PEG8 = NCCOCCOCCOCCOCCOCCOCCOCCOCCC(=O)O; 1Nal = N[C@@H](Cc1cccc2ccccc12)C(=O)O; 2Nal = N[C@@H](Cc1ccc2ccccc2c1)C(=O)O; Gly(4-THP) = N[C@H](C(=O)O)C1CCOCC1; pXylylene = c1cc(C[*:2])ccc1C[*:1]; Nva(3-Et) = CCC(CC)[C@H](N)C(=O)O; Nle = CCCC[C@H](N)C(=O)O; Aze = O=C(O)[C@@H]1CCN1
# Target: T1, human DLL3 (Homo sapiens, UniProt Q9NYJ7)
# T1 sequence (Q9NYJ7 27-618): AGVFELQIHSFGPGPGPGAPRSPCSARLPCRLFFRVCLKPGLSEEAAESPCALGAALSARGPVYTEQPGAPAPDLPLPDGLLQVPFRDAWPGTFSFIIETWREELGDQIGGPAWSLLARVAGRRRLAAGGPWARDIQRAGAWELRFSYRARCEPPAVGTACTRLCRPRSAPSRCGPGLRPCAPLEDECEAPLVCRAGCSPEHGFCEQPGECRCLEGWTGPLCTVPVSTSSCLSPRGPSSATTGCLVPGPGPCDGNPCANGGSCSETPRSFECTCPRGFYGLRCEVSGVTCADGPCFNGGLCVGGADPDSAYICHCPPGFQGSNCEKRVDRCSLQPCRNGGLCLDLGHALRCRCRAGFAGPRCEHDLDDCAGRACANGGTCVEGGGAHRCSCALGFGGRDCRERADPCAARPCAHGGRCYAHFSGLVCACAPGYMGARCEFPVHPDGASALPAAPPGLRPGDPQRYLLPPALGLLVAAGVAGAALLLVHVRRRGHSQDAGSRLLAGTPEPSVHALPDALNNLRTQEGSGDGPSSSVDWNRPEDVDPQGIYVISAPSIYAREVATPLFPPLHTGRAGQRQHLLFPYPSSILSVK
# Test: Affinity determination by Surface Plasmon Resonance (SPR)
# Type: binding
# Conditions: not given
# Procedure, shortened: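 Biotinylated human DLL3 was captured on a streptavidin chip with a reference surface. Compounds at several concentrations were injected at 100 μL/minute in phosphate buffer (137 mM NaCl, 2.7 mM KCl, 0.05% P20, 2% DMSO). Affinity and kinetics came from 1:1 model fits of the sensorgrams.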
row,Compound,Kd [nM]
1,"CC[C@H](C)[C@H](NC(=O)[C@@H](NC(=O)[C@H](Cc1c[nH]c2ccccc12)NC(C)=O)[C@@H](C)O)C(=O)N[C@H]1CSSC[C@@H](C(=O)N[C@@H](Cc2c[nH]c3ccccc23)C(=O)N2CCC[C@H]2C(=O)N[C@H](CCCCNC(=O)COCCOCCOCCOCCOCCOCCOCCOCCNC(=O)[C@@H](CCCCNC(=O)CN2CCN(CC(=O)O)CCN(CC(=O)O)CCN(CC(=O)O)CC2)NC(=O)COCCOCCOCCOCCOCCOCCOCCOCCNC(=O)Cc2ccc(Br)cc2)C(N)=O)NC(=O)[C@H](CC(=O)O)NC(=O)[C@H](Cc2c[nH]cn2)NC(=O)[C@H](Cc2ccc3ccccc3c2)NC(=O)[C@H](CC(N)=O)NC(=O)[C@H](CC(N)=O)NC1=O [compound 251, Ac-W-T-I-C(3)-N-N-(2Nal)-H-D-C(3)-W-P-{D-Lys[PEG8-D-Lys(DOTA)-PEG8-COCH2Ph-4Br]}-NH2] (Ac-WTICNN[2Nal]HDCWP[dK](X11)-NH2; disulfide 4-10)",< 1
2,"CC[C@H](C)[C@H](NC(=O)[C@@H](NC(=O)[C@H](Cc1c[nH]c2ccccc12)NC(C)=O)[C@@H](C)O)C(=O)N[C@H]1CSSC[C@@H](C(=O)N[C@@H](Cc2c[nH]c3ccccc23)C(=O)N2CCC[C@H]2C(=O)N[C@H](CCCCNC(=O)COCCOCCOCCOCCOCCOCCOCCOCCNC(=O)[C@@H](CCCCNC(=O)CN2CCN(CC(=O)O)CCN(CC(=O)O)CCN(CC(=O)O)CC2)NC(=O)CCOCCOCCOCCOCCOCCOCCOCCOCCOCCOCCOCCOCCOCCOCCOCCOCCOCCOCCOCCOCCOCCOCCOCCOCCNC(=O)Cc2ccc(Br)cc2)C(N)=O)NC(=O)[C@H](CC(=O)O)NC(=O)[C@H](Cc2c[nH]cn2)NC(=O)[C@H](Cc2ccc3ccccc3c2)NC(=O)[C@H](CC(N)=O)NC(=O)[C@H](CC(N)=O)NC1=O [compound 255, Ac-W-T-I-C(3)-N-N-(2Nal)-H-D-C(3)-W-P-{D-Lys[PEG8-D-Lys(DOTA)-PEG24-COCH2Ph-4Br]}-NH2]",1 to 10

# Same assay, conditions: 25° C., biotinylated human DLL3 immobilized on streptavidin sensor chip, 1:1 binding model; read-out: SPR KD
row,Compound,Kd [nM]
1,"CC[C@H](C)[C@H](NC(=O)[C@@H](NC(=O)[C@H](Cc1c[nH]c2ccccc12)NC(C)=O)[C@@H](C)O)C(=O)N[C@H]1CSSC[C@@H](C(=O)N[C@@H](Cc2c[nH]c3ccccc23)C(=O)N2CCC[C@H]2C(=O)N2CCC[C@@H]2C(=O)NCCOCCOCCOCCOCCOCCOCCOCCOCCC(=O)N[C@H](CCCCNC(=O)CN2CCN(CC(=O)O)CCN(CC(=O)O)CCN(CC(=O)O)CC2)C(N)=O)NC(=O)[C@H](CC(=O)O)NC(=O)[C@H](Cc2cnc[nH]2)NC(=O)[C@H](Cc2ccc3ccccc3c2)NC(=O)[C@H](CC(N)=O)NC(=O)[C@H](CC(N)=O)NC1=O [compound 235, Ac-W-T-I-C(3)-N-N-(2Nal)-H-D-C(3)-W-P-(D-Pro)-PEG8-[D-Lys(DOTA)]-NH2] (Ac-WTICNN[2Nal]HDCWP[dP][PEG8][dK](DOTA)-NH2; disulfide 4-10)",< 1
2,"CC[C@H](C)[C@H](NC(=O)[C@@H](NC(=O)[C@H](Cc1c[nH]c2ccccc12)NC(C)=O)[C@@H](C)O)C(=O)N[C@H]1CSSC[C@@H](C(=O)N[C@@H](Cc2c[nH]c3ccccc23)C(=O)N2CCC[C@H]2C(=O)N[C@H](CCCCNC(=O)CN2CCN(CC(=O)O)CCN(CC(=O)O)CCN(CC(=O)O)CC2)C(N)=O)NC(=O)[C@H](CC(=O)O)NC(=O)[C@H](CCCC[N+](C)(C)C)NC(=O)[C@H](Cc2ccc3ccccc3c2)NC(=O)[C@H](CC(N)=O)NC(=O)[C@H](CC(N)=O)NC1=O [compound 238, Ac-W-T-I-C(3)-N-N-(2Nal)-(K(Me)3)-D-C(3)-W-P-[D-Lys(DOTA)]-NH2] (Ac-WTICNN[2Nal][Lys(Me3)]DCWP[dK](DOTA)-NH2; disulfide 4-10)",1 to 10
3,"CCC(CC)[C@H](NC(=O)[C@@H](NC(=O)[C@H](Cc1c[nH]c2ccc(F)cc12)NC(C)=O)[C@@H](C)O)C(=O)N[C@H]1CSSC[C@@H](C(=O)N[C@@H](Cc2c[nH]c3ncccc23)C(=O)N2CC[C@H]2C(=O)N[C@@H](CCCCNC(=O)CN2CCN(CC(=O)O)CCN(CC(=O)O)CCN(CC(=O)O)CC2)C(N)=O)NC(=O)[C@H](CC(=O)O)NC(=O)[C@H](Cc2c[nH]cn2)NC(=O)[C@H](Cc2cccc3ccccc23)NC(=O)[C@H](CC(N)=O)NC(=O)[C@H](CC(N)=O)NC1=O [compound 241, Ac-(5Fluoro-W)-T-(Env)-C(3)-N-N-(1Nal)-H-D-C(3)-(7Aza-W)-(Aze)-[D-Lys(DOTA)]-NH2] (Ac-[Trp(5-F)]T[Nva(3-Et)]CNN[1Nal]HDC[Trp(7-aza)][Aze]K(DOTA)-NH2; disulfide 4-10)",1 to 10
4,"CCC(CC)[C@H](NC(=O)[C@@H](NC(=O)[C@H](Cc1c[nH]c2ccc(F)cc12)NC(C)=O)[C@@H](C)O)C(=O)N[C@H]1CSSC[C@@H](C(=O)N[C@@H](Cc2c[nH]c3ncccc23)C(=O)N2C[C@H](F)C[C@H]2C(=O)N[C@@H](CCCCNC(=O)CN2CCN(CC(=O)O)CCN(CC(=O)O)CCN(CC(=O)O)CC2)C(N)=O)NC(=O)[C@H](CC(=O)O)NC(=O)[C@H](Cc2cnc[nH]2)NC(=O)[C@H](Cc2ccc3ccccc3c2)NC(=O)[C@H](CC(N)=O)NC(=O)[C@H](CC(N)=O)NC1=O [compound 242, Ac-(5Fluoro-W)-T-(Env)-C(3)-N-N-(2Nal)-H-D-C(3)-(7Aza-W)-(trans4Fluoro-P)-[D-Lys(DOTA)]-NH2] (Ac-[Trp(5-F)]T[Nva(3-Et)]CNN[2Nal]HDC[Trp(7-aza)][Pro(trans-4-F)]K(DOTA)-NH2; disulfide 4-10)",< 1
5,"CC(=O)N[C@@H](Cc1c[nH]c2ccc(F)cc12)C(=O)N[C@H](C(=O)N[C@H](C(=O)N[C@H]1CSSC[C@@H](C(=O)N[C@@H](Cc2c[nH]c3ncccc23)C(=O)N2C[C@H](F)C[C@H]2C(=O)N[C@@H](CCCCNC(=O)CN2CCN(CC(=O)O)CCN(CC(=O)O)CCN(CC(=O)O)CC2)C(N)=O)NC(=O)[C@H](CC(=O)O)NC(=O)[C@H](Cc2c[nH]cn2)NC(=O)[C@H](Cc2ccc3ccccc3c2)NC(=O)[C@H](CC(N)=O)NC(=O)[C@H](CC(N)=O)NC1=O)C1CCOCC1)[C@@H](C)O [compound 243, Ac-(5Fluoro-W)-T-(THPG)-C(3)-N-N-(2Nal)-H-D-C(3)-(7Aza-W)-(trans4Fluoro-P)-[D-Lys(DOTA)]-NH2] (Ac-[Trp(5-F)]T[Gly(4-THP)]CNN[2Nal]HDC[Trp(7-aza)][Pro(trans-4-F)]K(DOTA)-NH2; disulfide 4-10)",< 1
6,"CCCC[C@H](NC(=O)[C@@H](NC(=O)[C@H](Cc1c[nH]c2ccc(F)cc12)NC(C)=O)[C@@H](C)O)C(=O)N[C@H]1CSSC[C@@H](C(=O)N[C@@H](Cc2c[nH]c3ncccc23)C(=O)N2C[C@H](F)C[C@H]2C(=O)N[C@H](CCCCNC(=O)CN2CCN(CC(=O)O)CCN(CC(=O)O)CCN(CC(=O)O)CC2)C(N)=O)NC(=O)[C@H](CC(=O)O)NC(=O)[C@H](Cc2c[nH]cn2)NC(=O)[C@H](Cc2ccc3ccccc3c2)NC(=O)[C@H](CC(N)=O)NC(=O)[C@H](CC(N)=O)NC1=O [compound 244, Ac-(5Fluoro-W)-T-(Nle)-C(3)-N-N-(2Nal)-H-D-C(3)-(7Aza-W)-(trans4Fluoro-P)-[D-Lys(DOTA)]-NH2] (Ac-[Trp(5-F)]T[Nle]CNN[2Nal]HDC[Trp(7-aza)][Pro(trans-4-F)][dK](DOTA)-NH2; disulfide 4-10)",< 1
7,"CC(=O)N[C@@H](Cc1c[nH]c2ccc(F)cc12)C(=O)N[C@H](C(=O)N[C@@H](Cc1ccccc1C(F)(F)F)C(=O)N[C@H]1CSSC[C@@H](C(=O)N[C@@H](Cc2c[nH]c3ncccc23)C(=O)N2C[C@H](F)C[C@H]2C(=O)N[C@@H](CCCCNC(=O)CN2CCN(CC(=O)O)CCN(CC(=O)O)CCN(CC(=O)O)CC2)C(N)=O)NC(=O)[C@H](CC(=O)O)NC(=O)[C@H](Cc2cnc[nH]2)NC(=O)[C@H](Cc2ccc3ccccc3c2)NC(=O)[C@H](CC(N)=O)NC(=O)[C@H](CC(N)=O)NC1=O)[C@@H](C)O [compound 246, Ac-(5Fluoro-W)-T-(2CF3-F)-C(3)-N-N-(2Nal)-H-D-C(3)-(7Aza-W)-(trans4Fluoro-P)-[D-Lys(DOTA)]-NH2] (Ac-[Trp(5-F)]T[Phe(2-CF3)]CNN[2Nal]HDC[Trp(7-aza)][Pro(trans-4-F)]K(DOTA)-NH2; disulfide 4-10)",< 1
8,"CC[C@H](C)[C@H](NC(=O)[C@@H](NC(=O)[C@H](Cc1c[nH]c2ccccc12)NC(C)=O)[C@@H](C)O)C(=O)N[C@H]1CSCc2ccc(cc2)CSC[C@@H](C(=O)N[C@@H](Cc2c[nH]c3ccccc23)C(=O)N2CCC[C@H]2C(=O)N[C@H](CCCCNC(=O)CN2CCN(CC(=O)O)CCN(CC(=O)O)CCN(CC(=O)O)CC2)C(N)=O)NC(=O)[C@H](CC(=O)O)NC(=O)[C@H](Cc2cnc[nH]2)NC(=O)[C@H](Cc2ccc3ccccc3c2)NC(=O)[C@H](CC(N)=O)NC(=O)[C@H](CC(N)=O)NC1=O [compound 256, Ac-W-T-I-C(3)(pDBX)-N-N-(2Nal)-H-D-C(2)-W-P-[D-Lys(DOTA)]-NH2] (Ac-WTICNN[2Nal]HDCWP[dK](DOTA)-NH2; linker 4-10 via pXylylene)",1 to 10
